Data reported in patent US20130046098A1, “KINASE INHIBITORS” (THE UNIVERSITY OF MANCHESTER, priority 2009, published 2013).
“Also recorded” adds a separate entry of the source. Each block holds one compound with its values, some of them ahead of it.

Experiments:
recombinant ROCK = test: In vitro ROCK activity assay (Cyclex Rho-kinase immunoassay); format: biochemical; settings: FIG. 2A bar chart
Protocol: A specific assay was used to evaluate the ability of the compounds of the invention to inhibit ROCK. Rho-kinase activity was determined using an immunoassay as recommended by the manufacturer (Cyclex Co., Ltd., Nagano, Japan). Briefly, […] samples containing 10 mUnit (1 Unit incorporates 1 nmol of phosphate into GST-MBS/MYPT1 per minute at 30° C.) of recombinant ROCK with or without the compounds of the invention were aliquoted into a 96-well plate (100 μl/well), pre-coated with threonine Rho-kinase phosphorylation substrate. After 30 min incubation at 30° C., the plate was washed three times with PBS then incubated with 100 μl/well of HRP conjugated anti-phospho-specific antibody for 1 h at room temperature. The amount of phosphorylated substrate was determined by adding 100 μl/well of substrate reagent for 10 min and the reaction was terminated by adding 100 μl/well of the stop solution. The absorbance was measured on a 96-well plate reader at 450 nm (Dynex Technologies, West Sussex, UK). Each data point was performed in triplicate and the assay was repeated twice.

ROCK1 = ROCK1 (Homo sapiens, UniProt Q13464); test: SelectScreen additional single point analysis; settings: 10 μM
ROCK2 = ROCK2 (Homo sapiens, UniProt O75116); test: SelectScreen additional single point analysis; settings: 10 μM
p38 alpha (MAPK14) = p38 alpha (MAPK14) (Homo sapiens, UniProt Q16539); test: SelectScreen in vitro kinase profiling, single point; settings: additional single point analysis, 10 μM
HGK (MAP4K4) = HGK (MAP4K4) (Homo sapiens, UniProt O95819); test: as above; settings: additional single point analysis, 10 μM
Aurora A = biological target: T1, Aurora A (Homo sapiens, UniProt O14965); test: as above; settings: additional single point analysis, 10 μM
T1 sequence (O14965 1-403): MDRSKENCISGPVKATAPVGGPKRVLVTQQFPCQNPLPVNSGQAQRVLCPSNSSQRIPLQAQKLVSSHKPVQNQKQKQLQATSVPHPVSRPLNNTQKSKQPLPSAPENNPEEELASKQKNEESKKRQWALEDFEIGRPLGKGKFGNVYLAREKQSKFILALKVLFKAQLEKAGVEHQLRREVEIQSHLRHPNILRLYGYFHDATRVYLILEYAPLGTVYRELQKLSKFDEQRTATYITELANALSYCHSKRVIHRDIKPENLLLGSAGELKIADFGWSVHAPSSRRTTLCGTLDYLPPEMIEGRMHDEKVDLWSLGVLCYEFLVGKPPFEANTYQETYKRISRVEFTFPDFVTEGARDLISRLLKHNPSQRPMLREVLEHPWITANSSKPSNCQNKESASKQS

[1] = system: GEF16 transfected NIH3T3 cells; test: Cell proliferation assay (Celltiter Aq96); format: cell-based, mouse; settings: 10 μM, Cell AQ96 absorbance at 6, 8 and 10 days
Protocol: FIG. 1D is a bar chart showing the results of Cell AQ^96 assessment of the growth of GEF16 and vector transfected cells seeded in a 96 well plate at 1×10^3 cells per well. These were incubated for 3 days followed by addition of reagent to determine the starting point for the assay. 10 μM of either Y27632 or DMSO were then added to wells containing both cell types and Cell AQ^96 absorbance measured at 6, 8 and 10 days. At day 3 cells were 100% confluent which was determined by phase contrast visual inspection of the cultures at ×20 magnification;
Cell proliferation was investigated using Celltiter Aq^96 reagent (Promega, Southampton, UK) according to the manufacturer's protocol. Cells were seeded into a 96-well plate at a density of 1×10^3 cells/well allowing 3 wells per data point and allowed to attach for a set period. Following this, the initial starting point 490 nm absorbance was determined by adding 20 μl of Aq^96 reagent to each well and incubating for 4 h at 37° C. in 5% CO2 (96-well plate reader, Dynex Technologies, West Sussex, UK). The various compounds (Y27632 or compounds of the invention) or DMSO control were then added to duplicate wells and the absorbance determined in the same way at the time points indicated. Each data set shown is representative of three separate experiments.

[2] = system: single transformed colony derived GEF16 NIH3T3 cells; test: Growth of cell populations derived from single GEF16 transformed colonies; format: cell-based, mouse; settings: FIG. 5A
Protocol: FIG. 5 illustrates that the growth suppressive effects of YA1 on single transformed colony derived GEF16 NIH3T3 cells and polyclonal Ras transformed NIH3T3 cells are more pronounced when these are co-cultured with non-transformed cells. In FIG. 5A single transformed colonies were picked from 10 day cultures of GEF16 polyclonal NIH3T3 cells and expanded. These cells were then seeded at 2.0×10^5 cells per 30 mm dish and treated with 10 μM of YA1 or DMSO control either immediately or following 10 days in culture. Duplicate wells were harvested for flow cytometry. In FIG. 5B a total of 2×10^5 cells per well were plated consisting of increasing numbers of non-transformed vector cells co-cultured with decreasing numbers of single transformed colony derived GEF16 cells. These were treated with 10 μM of either YA1 or DMSO for 10 days. In producing the results shown in FIG. 5C the same co-culture experiment described in connection with FIG. 5B was carried out substituting polyclonal Ras transformed NIH3T3 cells for GEF16 transformed cells.
Single transformed colonies were picked from GEF16 polyclonal NIH3T3 cells and expanded according to the methods described above. Expanded cell populations were plated and a compound of the invention (YA1) added either immediately or after 10 days when the cells were post-confluent.

PKC epsilon = biological target: T2, PKC epsilon (Homo sapiens, UniProt Q02156); settings: 10 μM; cited from earlier work
T2 sequence (Q02156 1-737): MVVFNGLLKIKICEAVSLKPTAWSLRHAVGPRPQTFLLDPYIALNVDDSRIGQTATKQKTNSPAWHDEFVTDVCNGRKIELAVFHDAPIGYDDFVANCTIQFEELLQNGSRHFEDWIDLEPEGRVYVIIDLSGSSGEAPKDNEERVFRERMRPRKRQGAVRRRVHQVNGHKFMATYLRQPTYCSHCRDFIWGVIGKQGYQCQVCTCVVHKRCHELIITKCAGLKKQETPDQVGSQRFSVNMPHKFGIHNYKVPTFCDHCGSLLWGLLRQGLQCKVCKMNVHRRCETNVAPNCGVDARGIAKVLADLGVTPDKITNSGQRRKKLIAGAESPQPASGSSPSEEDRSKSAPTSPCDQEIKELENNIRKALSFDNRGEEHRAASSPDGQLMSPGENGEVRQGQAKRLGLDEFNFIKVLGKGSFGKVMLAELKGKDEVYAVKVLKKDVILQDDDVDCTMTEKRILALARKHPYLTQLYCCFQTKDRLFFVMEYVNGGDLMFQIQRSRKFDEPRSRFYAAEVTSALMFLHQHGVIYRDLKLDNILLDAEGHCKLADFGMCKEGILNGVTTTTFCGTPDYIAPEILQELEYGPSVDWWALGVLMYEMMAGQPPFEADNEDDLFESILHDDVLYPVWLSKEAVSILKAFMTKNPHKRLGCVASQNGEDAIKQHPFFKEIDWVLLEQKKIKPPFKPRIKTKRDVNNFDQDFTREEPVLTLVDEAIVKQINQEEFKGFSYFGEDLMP

[3] = system: polyclonal GEF16 transfected NIH3T3 cells; test: Transformed colony forming assay (Toluidine blue)
Protocol: Following this incubation period the compound was then removed from the culture media and cells maintained in normal growth media for a further 10 days before the photographs shown were taken.
In FIG. 4A polyclonal GEF16 transfected cells were seeded at 2.0×10^5 cells per 30 mm dish and incubated over night. […] After a further 10 days culture in the absence of inhibitors the cells were stained with Toluidine blue and photographed to produce the images shown. […] These were incubated for 3 or 6 days then stained with Toluidine blue before being photographed.
Medium (containing the compound of interest—either Y27632 or the selected compounds of the invention—or DMSO control) was changed every 2 days. Formation of foci was analysed by Toluidine blue (Sigma-Aldrich, Poole, UK) staining after 10 days growth post confluence. […] Each assay was carried out in triplicate and the results shown are representative of at least three separate experiments.

Sequence of p38 alpha (MAPK14) (Q16539 whole entry): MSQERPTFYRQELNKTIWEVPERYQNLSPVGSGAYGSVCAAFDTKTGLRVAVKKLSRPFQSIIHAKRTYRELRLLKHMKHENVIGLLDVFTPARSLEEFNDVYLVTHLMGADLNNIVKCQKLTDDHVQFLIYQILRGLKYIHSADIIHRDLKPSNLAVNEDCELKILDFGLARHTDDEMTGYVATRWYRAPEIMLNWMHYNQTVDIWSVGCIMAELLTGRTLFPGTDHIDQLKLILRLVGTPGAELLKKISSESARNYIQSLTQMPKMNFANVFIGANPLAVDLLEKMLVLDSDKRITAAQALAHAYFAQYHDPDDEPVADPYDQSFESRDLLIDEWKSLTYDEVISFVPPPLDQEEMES
Sequence of ROCK1 (Q13464 whole entry): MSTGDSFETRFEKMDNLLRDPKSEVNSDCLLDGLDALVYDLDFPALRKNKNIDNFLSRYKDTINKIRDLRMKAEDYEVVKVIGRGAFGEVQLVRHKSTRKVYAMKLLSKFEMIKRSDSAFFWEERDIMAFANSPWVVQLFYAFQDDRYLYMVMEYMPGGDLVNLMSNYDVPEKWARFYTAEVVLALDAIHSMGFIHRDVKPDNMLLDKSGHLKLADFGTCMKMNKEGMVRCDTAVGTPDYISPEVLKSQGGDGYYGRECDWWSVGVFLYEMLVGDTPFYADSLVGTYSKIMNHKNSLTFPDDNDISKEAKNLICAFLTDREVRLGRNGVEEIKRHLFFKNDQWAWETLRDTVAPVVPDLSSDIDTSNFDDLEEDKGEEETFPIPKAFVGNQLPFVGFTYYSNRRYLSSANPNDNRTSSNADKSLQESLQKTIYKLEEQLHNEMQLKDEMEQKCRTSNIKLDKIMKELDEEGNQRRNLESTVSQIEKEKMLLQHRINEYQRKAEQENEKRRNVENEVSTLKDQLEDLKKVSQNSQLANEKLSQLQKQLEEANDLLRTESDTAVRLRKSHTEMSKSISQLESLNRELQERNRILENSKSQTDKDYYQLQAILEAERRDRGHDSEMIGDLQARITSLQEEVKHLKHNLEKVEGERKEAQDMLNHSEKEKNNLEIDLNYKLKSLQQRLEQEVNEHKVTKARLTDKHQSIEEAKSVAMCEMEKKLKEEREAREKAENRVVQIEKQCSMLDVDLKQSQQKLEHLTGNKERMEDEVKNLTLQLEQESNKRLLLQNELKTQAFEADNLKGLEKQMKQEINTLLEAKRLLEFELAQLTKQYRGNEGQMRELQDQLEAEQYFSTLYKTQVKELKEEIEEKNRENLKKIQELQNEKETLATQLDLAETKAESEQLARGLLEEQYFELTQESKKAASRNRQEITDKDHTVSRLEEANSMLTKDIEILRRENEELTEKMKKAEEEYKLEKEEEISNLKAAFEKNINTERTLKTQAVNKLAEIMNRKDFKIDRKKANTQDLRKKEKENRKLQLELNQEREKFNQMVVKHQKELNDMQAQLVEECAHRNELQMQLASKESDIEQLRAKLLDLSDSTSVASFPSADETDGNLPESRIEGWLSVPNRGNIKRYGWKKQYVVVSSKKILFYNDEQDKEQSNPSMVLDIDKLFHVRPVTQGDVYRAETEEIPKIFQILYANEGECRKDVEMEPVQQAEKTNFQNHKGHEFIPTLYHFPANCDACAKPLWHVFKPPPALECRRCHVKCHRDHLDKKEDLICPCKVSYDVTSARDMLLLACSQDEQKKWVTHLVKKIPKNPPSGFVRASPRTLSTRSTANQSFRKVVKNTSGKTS
Sequence of ROCK2 (O75116 whole entry): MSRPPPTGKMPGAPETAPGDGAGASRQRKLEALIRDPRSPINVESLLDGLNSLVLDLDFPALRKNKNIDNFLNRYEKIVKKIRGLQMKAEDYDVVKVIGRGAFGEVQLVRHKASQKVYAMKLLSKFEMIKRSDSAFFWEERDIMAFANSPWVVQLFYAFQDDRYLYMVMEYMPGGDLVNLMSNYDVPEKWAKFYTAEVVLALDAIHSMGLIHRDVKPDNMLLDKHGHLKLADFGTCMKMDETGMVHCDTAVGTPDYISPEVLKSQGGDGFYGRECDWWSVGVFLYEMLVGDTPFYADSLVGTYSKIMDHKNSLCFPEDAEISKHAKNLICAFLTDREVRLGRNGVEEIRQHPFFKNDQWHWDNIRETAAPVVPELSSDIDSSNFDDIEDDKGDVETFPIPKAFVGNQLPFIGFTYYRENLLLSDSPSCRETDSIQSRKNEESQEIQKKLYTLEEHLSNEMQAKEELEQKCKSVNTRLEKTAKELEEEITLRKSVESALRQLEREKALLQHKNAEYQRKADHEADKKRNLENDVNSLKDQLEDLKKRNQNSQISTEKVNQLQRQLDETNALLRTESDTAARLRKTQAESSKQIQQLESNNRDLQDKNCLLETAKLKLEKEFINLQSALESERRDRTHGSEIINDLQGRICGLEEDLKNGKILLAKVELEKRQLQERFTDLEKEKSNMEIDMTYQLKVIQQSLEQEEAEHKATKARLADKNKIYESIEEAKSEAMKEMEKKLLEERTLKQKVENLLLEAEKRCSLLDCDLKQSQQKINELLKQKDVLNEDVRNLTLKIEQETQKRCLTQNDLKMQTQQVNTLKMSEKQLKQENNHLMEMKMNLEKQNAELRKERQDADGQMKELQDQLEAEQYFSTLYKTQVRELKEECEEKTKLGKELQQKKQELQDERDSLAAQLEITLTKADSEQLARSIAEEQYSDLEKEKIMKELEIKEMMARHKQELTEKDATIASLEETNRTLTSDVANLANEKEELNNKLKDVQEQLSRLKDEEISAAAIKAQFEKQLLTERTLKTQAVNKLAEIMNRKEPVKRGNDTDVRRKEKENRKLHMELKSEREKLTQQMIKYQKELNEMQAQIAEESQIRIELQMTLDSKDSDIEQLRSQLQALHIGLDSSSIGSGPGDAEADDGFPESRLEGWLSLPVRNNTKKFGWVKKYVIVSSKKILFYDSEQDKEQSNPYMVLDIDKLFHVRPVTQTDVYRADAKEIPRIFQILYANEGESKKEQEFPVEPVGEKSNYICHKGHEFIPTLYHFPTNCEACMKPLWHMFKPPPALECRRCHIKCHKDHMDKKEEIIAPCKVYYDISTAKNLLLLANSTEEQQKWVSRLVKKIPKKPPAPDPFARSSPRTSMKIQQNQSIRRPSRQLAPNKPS
Sequence of HGK (MAP4K4) (O95819 whole entry): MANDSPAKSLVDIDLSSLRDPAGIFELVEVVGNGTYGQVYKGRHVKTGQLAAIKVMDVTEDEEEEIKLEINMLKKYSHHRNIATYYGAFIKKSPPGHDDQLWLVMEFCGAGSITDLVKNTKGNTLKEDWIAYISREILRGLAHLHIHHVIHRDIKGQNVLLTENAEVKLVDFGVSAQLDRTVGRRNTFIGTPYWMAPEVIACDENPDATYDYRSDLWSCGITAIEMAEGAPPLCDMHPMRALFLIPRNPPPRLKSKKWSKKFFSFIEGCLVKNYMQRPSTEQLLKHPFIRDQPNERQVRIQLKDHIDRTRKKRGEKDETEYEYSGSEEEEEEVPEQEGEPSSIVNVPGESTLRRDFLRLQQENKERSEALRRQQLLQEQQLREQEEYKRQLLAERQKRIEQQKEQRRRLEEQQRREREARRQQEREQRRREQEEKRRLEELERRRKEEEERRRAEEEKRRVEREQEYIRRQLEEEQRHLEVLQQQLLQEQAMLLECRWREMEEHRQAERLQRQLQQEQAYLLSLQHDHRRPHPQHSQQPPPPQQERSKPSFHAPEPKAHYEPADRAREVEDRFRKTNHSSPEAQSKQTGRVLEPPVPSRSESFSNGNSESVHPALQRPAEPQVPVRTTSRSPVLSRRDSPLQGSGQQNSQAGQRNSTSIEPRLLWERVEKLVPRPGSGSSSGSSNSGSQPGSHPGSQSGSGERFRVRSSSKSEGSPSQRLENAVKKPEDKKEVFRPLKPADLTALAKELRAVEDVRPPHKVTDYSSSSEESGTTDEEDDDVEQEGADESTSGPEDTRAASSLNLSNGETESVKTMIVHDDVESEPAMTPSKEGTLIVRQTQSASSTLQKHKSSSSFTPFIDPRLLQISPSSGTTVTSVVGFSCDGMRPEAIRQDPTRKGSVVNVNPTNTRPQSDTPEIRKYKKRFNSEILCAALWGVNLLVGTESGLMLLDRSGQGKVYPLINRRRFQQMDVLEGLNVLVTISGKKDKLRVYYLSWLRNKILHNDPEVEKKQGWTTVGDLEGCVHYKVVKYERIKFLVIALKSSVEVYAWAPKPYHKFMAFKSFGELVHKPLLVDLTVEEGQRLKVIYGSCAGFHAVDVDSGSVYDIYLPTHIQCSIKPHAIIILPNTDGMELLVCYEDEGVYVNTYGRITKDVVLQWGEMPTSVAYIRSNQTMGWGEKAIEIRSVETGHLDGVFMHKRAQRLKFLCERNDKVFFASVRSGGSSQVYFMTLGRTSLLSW

activity against ROCK1 (ROCK1): less activity against ROCKs than YA2
activity against ROCK2 (ROCK2): less activity against ROCKs than YA2
Compound: CN(C(=O)c1ccc(CNC(=O)OC(C)(C)C)cc1)c1ccncc1 [YA4, 4-(N-Methyl-N-pyridin-4-ylcarbamoyl)benzylcarbamic acid tert-butyl ester]
ROCK inhibitory activity compared to Y27632 (recombinant ROCK): lower ROCK inhibitory activity; also recorded: significantly less activity against ROCK than did their structural analogue Y27632
activity against p38 (p38 alpha (MAPK14)): significant activity against p38, HGK and Aurora A
activity against HGK (HGK (MAP4K4)): significant activity against p38, HGK and Aurora A
activity against Aurora A (Aurora A): significant activity against p38, HGK and Aurora A

Compound: C[C@@H](N)[C@H]1CC[C@H](C(=O)Nc2ccncc2)CC1 [Compound Y27632, reference compound]
growth of confluent GEF16 transformed cells [1]: inhibits the growth of confluent GEF16 transformed cells
effect on single colony derived GEF16 transformed cells grown in the absence of non-transformed cells [2]: little or no effect
inhibition of PKC epsilon (PKC epsilon): 94%
transformed focus formation after treatment, re-seeding and chase ([3]; 10 μM for 2-10 days, re-seeded at 2×10^5, 10 day chase without inhibitor): able to suppress transformed focus formation
formation of GEF16 transformed colonies ([3]; 10 μM, 10 days, post confluent cultures): suppresses the formation of GEF16 transformed NIH3T3 cell colonies
effect on pre-formed transformed colonies ([3]; colonies formed for 10 days, then 10 μM or 20 μM for 3 and 6 days): very little effect on pre-formed transformed colonies; also recorded: Neither Y27632 nor the other compounds of the invention tested (data not shown) exhibited this property

Compound: C[S+]([O-])c1ccc(-c2nc(-c3ccncc3)c(-c3ccc(F)cc3)[nH]2)cc1 (stereo not shown) [SB203580, reference compound]
activity against GEF16 transformed colonies ([3]; further studies by the inventors): some activity against GEF16 transformed colonies although this was much less than the compound of the invention YA1
